Read-outs that look alike come from different tables or passages of the source. Values belong to the compound of their own block, whether it stands above or below them.
Experiments:
[1] = target: ABL (H396P) (Homo sapiens, UniProt P00519, H396P); assay: Activity against various protein tyrosine kinases: ABL (H396P); type: biochemical; settings: for inhibition at 0.01 µM: read-out: % Inhibition at 10 nM; for inhibition at 1 µM: read-out: % Inhibition at 1 μM
Protocol: (§1) Using techniques know those of ordinary skill in the art, compounds were tested for activity against various protein tyrosine kinases.

[2] = target: AKT2 (Homo sapiens, UniProt P31751); assay: Activity against various protein tyrosine kinases: AKT2; type: biochemical; settings: for inhibition at 0.01 µM: 10 nM
AKT2, sequence (P31751 whole entry, species assumed): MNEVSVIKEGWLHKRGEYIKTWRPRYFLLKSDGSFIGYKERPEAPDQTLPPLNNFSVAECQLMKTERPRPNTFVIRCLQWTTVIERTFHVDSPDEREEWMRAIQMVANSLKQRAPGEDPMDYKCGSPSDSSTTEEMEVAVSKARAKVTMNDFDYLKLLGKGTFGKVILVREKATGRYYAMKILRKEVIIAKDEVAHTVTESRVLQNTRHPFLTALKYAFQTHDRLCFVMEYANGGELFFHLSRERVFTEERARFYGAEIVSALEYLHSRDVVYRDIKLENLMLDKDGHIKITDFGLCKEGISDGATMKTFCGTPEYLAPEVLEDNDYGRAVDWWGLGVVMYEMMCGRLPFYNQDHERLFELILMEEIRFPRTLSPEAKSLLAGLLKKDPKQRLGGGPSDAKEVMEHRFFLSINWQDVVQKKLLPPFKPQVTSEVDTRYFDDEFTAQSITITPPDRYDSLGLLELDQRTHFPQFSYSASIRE
Protocol: as §1

[3] = target: T1, AurA (Homo sapiens, UniProt O14965); assay: Activity against various protein tyrosine kinases: AurA; type: biochemical; settings: for inhibition at 0.01 µM: 10 nM
T1 sequence (O14965 1-403): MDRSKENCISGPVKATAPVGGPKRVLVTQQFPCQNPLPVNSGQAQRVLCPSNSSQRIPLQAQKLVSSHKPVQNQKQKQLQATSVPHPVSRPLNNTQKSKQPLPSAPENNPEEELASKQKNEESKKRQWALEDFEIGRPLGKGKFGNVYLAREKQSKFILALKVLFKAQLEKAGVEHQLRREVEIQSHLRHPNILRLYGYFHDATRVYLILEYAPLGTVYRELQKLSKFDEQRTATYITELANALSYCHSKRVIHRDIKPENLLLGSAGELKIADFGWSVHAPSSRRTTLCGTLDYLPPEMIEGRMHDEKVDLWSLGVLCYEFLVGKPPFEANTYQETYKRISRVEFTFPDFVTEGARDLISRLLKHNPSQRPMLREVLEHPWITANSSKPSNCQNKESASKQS
Protocol: as §1

[4] = target: AurB (Homo sapiens, UniProt Q96GD4); assay: Activity against various protein tyrosine kinases: AurB; type: biochemical; settings: for inhibition at 0.01 µM: 10 nM; for inhibition at 1 µM: read-out: % Inhibition at 1 μM
AurB, sequence (Q96GD4 whole entry): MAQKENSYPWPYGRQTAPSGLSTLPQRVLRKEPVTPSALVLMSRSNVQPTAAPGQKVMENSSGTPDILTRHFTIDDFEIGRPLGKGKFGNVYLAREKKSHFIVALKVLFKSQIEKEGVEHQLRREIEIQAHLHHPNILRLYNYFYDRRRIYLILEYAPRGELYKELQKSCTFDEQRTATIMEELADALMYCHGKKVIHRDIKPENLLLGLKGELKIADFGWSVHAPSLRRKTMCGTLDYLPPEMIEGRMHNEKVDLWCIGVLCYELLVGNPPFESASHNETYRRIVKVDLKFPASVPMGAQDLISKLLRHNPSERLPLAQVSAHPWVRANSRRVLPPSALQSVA
Protocol: as §1

[5] = target: T2, AurC (Homo sapiens, UniProt Q9UQB9); assay: Activity against various protein tyrosine kinases: AurC; type: biochemical; settings: for inhibition at 0.01 µM: 10 nM
T2 sequence (Q9UQB9 1-309): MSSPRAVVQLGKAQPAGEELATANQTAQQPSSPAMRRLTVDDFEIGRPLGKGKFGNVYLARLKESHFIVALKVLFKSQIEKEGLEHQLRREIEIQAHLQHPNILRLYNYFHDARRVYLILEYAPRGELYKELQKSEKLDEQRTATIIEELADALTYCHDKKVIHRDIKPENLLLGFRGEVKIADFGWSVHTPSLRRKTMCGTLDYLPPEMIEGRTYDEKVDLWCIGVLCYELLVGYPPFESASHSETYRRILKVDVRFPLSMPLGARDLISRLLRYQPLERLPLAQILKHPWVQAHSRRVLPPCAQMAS
Protocol: as §1

[6] = target: CaMKII (gamma) (Homo sapiens, UniProt Q13555); assay: Activity against various protein tyrosine kinases: CaMKII (gamma); type: biochemical; settings: for inhibition at 0.01 µM: 10 nM
CaMKII (gamma), sequence (Q13555 whole entry, species assumed): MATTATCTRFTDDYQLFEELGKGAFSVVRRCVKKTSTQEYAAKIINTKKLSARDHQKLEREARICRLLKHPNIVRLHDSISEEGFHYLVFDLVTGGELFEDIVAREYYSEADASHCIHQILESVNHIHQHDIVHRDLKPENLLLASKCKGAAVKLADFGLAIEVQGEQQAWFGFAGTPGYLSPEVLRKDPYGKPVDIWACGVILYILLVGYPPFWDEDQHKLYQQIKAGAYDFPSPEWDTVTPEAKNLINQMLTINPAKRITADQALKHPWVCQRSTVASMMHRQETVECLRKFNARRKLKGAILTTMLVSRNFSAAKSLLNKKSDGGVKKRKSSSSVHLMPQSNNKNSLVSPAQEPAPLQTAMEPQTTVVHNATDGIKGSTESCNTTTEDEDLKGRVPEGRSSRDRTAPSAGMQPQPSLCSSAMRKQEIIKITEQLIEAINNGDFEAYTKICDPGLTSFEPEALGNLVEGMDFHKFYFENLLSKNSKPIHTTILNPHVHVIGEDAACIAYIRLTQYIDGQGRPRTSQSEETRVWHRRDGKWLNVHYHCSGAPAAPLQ
Protocol: as §1

[7] = target: CK1d (Homo sapiens, UniProt P48730); assay: Activity against various protein tyrosine kinases: CK1d; type: biochemical; settings: for inhibition at 0.01 µM: 10 nM
CK1d, sequence (P48730 whole entry): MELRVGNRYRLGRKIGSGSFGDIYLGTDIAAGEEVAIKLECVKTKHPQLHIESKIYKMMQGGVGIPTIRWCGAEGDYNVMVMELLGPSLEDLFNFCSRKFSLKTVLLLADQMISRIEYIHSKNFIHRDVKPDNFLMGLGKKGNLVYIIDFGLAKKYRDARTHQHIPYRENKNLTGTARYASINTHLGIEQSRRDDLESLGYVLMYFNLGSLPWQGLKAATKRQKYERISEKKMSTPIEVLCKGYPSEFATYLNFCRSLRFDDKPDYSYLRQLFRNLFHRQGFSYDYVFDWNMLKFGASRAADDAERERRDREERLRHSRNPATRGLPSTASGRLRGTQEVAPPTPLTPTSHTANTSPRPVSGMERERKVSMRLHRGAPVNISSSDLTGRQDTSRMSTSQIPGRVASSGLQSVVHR
Protocol: as §1

[8] = target: EGFR (Homo sapiens, UniProt P00533); assay: Activity against various protein tyrosine kinases: EGFR; type: biochemical; settings: for inhibition at 0.01 µM: 10 nM
Protocol: as §1

[9] = target: Fer (Homo sapiens, UniProt P16591); assay: Activity against various protein tyrosine kinases: Fer; type: biochemical; settings: for inhibition at 0.01 µM: 10 nM
Fer, sequence (P16591 whole entry, species assumed): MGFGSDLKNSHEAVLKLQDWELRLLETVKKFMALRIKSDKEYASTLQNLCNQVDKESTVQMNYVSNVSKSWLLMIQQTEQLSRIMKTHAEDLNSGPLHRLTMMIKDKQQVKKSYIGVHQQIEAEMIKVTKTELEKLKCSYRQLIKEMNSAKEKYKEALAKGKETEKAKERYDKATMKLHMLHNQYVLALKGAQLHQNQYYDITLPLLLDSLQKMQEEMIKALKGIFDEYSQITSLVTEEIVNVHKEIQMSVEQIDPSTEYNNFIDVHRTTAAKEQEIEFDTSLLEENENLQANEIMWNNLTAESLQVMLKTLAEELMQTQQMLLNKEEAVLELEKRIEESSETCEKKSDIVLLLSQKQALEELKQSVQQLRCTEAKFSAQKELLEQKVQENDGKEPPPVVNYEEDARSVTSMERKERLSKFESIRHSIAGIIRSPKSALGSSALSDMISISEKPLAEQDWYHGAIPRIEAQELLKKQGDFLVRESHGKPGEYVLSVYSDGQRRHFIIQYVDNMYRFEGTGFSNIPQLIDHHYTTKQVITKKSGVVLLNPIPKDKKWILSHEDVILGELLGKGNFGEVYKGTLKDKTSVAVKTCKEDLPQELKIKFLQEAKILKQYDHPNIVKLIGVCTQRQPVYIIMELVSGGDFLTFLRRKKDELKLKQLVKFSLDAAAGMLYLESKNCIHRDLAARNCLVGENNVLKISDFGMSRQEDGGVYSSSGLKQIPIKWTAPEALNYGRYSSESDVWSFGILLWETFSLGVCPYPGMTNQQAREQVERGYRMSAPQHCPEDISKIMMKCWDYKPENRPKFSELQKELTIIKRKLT
Protocol: as §1

[10] = target: FGFR2 (Homo sapiens, UniProt P21802); assay: Activity against various protein tyrosine kinases: FGFR2; type: biochemical; settings: for inhibition at 0.01 µM: 10 nM
Protocol: as §1

[11] = target: FGFR4 (Homo sapiens, UniProt P22455); assay: Activity against various protein tyrosine kinases: FGFR4; type: biochemical; settings: for inhibition at 0.01 µM: 10 nM
Protocol: as §1

[12] = target: FYN (Homo sapiens, UniProt P06241); assay: Activity against various protein tyrosine kinases: FYN; type: biochemical; settings: for inhibition at 0.01 µM: 10 nM
Protocol: as §1

[13] = target: HCK (Homo sapiens, UniProt P08631); assay: Activity against various protein tyrosine kinases: HCK; type: biochemical; settings: for inhibition at 0.01 µM: 10 nM
HCK, sequence (P08631 whole entry, species assumed): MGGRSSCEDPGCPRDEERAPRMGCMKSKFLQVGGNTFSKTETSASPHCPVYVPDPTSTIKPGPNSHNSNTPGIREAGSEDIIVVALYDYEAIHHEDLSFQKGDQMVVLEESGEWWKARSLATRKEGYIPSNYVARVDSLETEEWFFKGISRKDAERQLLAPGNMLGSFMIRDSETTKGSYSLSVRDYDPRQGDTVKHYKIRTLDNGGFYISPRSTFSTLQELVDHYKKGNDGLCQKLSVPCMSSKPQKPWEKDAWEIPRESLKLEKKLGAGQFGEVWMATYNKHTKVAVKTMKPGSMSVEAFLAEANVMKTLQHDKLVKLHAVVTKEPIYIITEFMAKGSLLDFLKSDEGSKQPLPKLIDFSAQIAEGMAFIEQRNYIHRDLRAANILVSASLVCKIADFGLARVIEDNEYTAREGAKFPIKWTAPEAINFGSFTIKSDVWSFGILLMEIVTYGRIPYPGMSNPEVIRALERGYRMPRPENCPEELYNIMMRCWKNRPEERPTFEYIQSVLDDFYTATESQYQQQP
Protocol: as §1

[14] = target: LYN (Homo sapiens, UniProt P07948); assay: Activity against various protein tyrosine kinases: LYN; type: biochemical; settings: for inhibition at 0.01 µM: 10 nM
Protocol: as §1

[15] = target: MAPKAPK2 (Homo sapiens, UniProt P49137); assay: Activity against various protein tyrosine kinases: MAPKAPK2; type: biochemical; settings: for inhibition at 0.01 µM: 10 nM
MAPKAPK2, sequence (P49137 whole entry, species assumed): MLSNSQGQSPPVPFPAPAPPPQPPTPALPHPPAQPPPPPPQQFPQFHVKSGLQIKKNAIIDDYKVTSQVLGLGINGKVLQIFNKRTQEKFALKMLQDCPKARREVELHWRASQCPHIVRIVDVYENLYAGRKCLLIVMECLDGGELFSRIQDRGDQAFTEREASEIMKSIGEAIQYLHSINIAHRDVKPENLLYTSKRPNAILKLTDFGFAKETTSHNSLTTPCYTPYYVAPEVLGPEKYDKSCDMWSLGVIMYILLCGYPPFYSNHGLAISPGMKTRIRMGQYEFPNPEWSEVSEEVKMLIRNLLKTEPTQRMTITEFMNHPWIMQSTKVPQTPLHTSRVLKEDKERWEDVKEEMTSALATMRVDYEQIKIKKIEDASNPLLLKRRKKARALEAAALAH
Protocol: as §1

[16] = target: MET (Homo sapiens, UniProt P08581); assay: Activity against various protein tyrosine kinases: MET; type: biochemical; settings: for inhibition at 0.01 µM: 10 nM
Protocol: as §1

[17] = target: MSK1 (Homo sapiens, UniProt O75582); assay: Activity against various protein tyrosine kinases: MSK1; type: biochemical; settings: for inhibition at 0.01 µM: 10 nM
MSK1, sequence (O75582 whole entry, species assumed): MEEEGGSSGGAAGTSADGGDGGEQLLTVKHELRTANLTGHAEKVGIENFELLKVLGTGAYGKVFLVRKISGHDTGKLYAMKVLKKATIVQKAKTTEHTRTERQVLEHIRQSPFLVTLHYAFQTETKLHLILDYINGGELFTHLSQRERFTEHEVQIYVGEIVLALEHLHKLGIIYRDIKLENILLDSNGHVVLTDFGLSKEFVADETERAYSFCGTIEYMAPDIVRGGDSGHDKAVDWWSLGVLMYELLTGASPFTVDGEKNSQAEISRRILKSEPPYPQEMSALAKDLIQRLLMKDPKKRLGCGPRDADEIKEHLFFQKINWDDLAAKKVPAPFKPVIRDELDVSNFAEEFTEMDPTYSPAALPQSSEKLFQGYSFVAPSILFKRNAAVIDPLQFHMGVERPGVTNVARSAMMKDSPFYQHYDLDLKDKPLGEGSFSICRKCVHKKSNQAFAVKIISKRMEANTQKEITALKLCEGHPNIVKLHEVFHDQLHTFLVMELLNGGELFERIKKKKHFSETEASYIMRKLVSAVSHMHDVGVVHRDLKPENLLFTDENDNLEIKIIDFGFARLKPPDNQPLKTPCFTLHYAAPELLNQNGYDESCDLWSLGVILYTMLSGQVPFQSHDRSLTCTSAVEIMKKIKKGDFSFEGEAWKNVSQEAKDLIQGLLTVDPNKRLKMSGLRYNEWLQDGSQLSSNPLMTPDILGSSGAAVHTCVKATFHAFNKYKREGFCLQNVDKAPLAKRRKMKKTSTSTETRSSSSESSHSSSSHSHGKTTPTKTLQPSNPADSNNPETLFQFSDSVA
Protocol: as §1

[18] = system: PKA; assay: Activity against various protein tyrosine kinases: PKA; type: biochemical
Protocol: as §1

[19] = target: T3, PRAK (Homo sapiens, UniProt Q8IW41); assay: Activity against various protein tyrosine kinases: PRAK; type: biochemical; settings: for inhibition at 0.01 µM: 10 nM
T3 sequence (Q8IW41 1-473): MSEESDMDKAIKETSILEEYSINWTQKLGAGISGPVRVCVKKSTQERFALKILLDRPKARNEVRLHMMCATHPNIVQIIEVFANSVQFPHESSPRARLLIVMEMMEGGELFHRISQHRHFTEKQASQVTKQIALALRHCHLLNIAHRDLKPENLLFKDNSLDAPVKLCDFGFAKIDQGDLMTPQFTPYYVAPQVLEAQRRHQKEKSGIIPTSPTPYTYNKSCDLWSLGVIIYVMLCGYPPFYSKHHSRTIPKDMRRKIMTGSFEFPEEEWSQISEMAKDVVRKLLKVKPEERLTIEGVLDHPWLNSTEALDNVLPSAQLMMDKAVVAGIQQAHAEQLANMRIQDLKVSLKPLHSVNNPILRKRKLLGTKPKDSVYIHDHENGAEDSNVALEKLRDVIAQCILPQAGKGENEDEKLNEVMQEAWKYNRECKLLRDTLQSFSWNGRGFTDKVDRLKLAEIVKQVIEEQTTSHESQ
Protocol: as §1

[20] = target: SRC (Homo sapiens, UniProt P12931); assay: Activity against various protein tyrosine kinases: SRC; type: biochemical; settings: for inhibition at 0.01 µM: 10 nM
SRC, sequence (P12931 whole entry, species assumed): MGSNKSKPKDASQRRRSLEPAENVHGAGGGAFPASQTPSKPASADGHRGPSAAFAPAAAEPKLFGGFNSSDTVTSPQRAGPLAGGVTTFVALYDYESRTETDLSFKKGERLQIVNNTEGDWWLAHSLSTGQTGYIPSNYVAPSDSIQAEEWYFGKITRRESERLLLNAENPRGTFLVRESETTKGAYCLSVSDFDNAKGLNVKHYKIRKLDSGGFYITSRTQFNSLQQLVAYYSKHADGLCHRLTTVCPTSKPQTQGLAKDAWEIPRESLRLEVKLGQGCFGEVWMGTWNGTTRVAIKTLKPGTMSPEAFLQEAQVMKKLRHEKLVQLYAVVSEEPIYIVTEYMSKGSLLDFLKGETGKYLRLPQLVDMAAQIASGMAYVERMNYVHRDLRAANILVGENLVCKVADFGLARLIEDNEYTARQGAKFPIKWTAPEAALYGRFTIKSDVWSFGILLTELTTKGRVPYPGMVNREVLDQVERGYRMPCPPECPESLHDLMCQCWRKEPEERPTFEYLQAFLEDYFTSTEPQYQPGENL
Protocol: as §1

[21] = target: ABL (Homo sapiens, UniProt P00519); assay: Off-chip mobility-shift kinase assay (Caliper LABCHIP), ABL

- inhibition at 0.01 µM ([1]; ABL (H396P), 10 nM): 99%
- inhibition at 1 µM ([1]; ABL (H396P), 1 μM): 99%
- inhibition at 0.01 µM [2]: 3%
- inhibition at 1 µM [2]: 3%
- inhibition at 0.01 µM [3]: 3%
- inhibition at 1 µM [3]: 28%
- inhibition at 0.01 µM ([4]; AurB): 0%
- inhibition at 1 µM ([4]; AurB, 1 μM): 4%
- inhibition at 0.01 µM [5]: 0%
- inhibition at 1 µM [5]: 2%
- inhibition at 0.01 µM [6]: 6%
- inhibition at 1 µM [6]: 3%
- inhibition at 0.01 µM [7]: 0%
- inhibition at 1 µM [7]: 9%
- inhibition at 0.01 µM [8]: 6%
- inhibition at 1 µM [8]: 62%
- inhibition at 0.01 µM [9]: -2%
- inhibition at 1 µM [9]: 5%
- inhibition at 0.01 µM [10]: 5%
- inhibition at 1 µM [10]: 35%
- inhibition at 0.01 µM [11]: 0%
- inhibition at 1 µM [11]: 2%
- inhibition at 0.01 µM [12]: 98%
- inhibition at 1 µM [12]: 98%
- inhibition at 0.01 µM [13]: 98%
- inhibition at 1 µM [13]: 99%
- inhibition at 0.01 µM [14]: 98%
- inhibition at 1 µM [14]: 98%
- inhibition at 0.01 µM [15]: 3%
- inhibition at 1 µM [15]: 7%
- inhibition at 0.01 µM [16]: 1%
- inhibition at 1 µM [16]: 1%
- inhibition at 0.01 µM [17]: 3%
- inhibition at 1 µM [17]: 5%
- inhibition at 0.01 µM [19]: 8%
- inhibition at 1 µM [19]: 0%
- inhibition at 0.01 µM [20]: 98%
- inhibition at 1 µM [20]: 98%
- IC50 [21]: 0.32 nM
- ABL AVG % Activity at 1.0E−09 ([21]; concentration 1.0E−09, dasatinib-corresponding compounds): 4%
- ABL AVG % Activity at 1.0E−10 ([21]; concentration 1.0E−10, dasatinib-corresponding compounds): 80%
- ABL AVG % Activity at 1.0E−11 ([21]; concentration 1.0E−11, dasatinib-corresponding compounds): 98%
- ABL AVG % Activity at 3.0E−09 ([21]; concentration 3.0E−09, dasatinib-corresponding compounds): −1%
- ABL AVG % Activity at 3.0E−10 ([21]; concentration 3.0E−10, dasatinib-corresponding compounds): 48%
- ABL AVG % Activity at 3.0E−11 ([21]; concentration 3.0E−11, dasatinib-corresponding compounds): 91%
Structure (SMILES): COCCOCCOCCOCCOCCOCCOCCNC(=O)OCCN1CCN(c2cc(Nc3ncc(C(=O)Nc4c(C)cccc4Cl)s3)nc(C)n2)CC1 [mPEG7-NHCOO-Dasatinib]
- % Inhibition at 10 nM [18]: 0%
- % Inhibition at 1 μM [18]: 2%

Structure (SMILES): Cc1nc(Nc2ncc(C(=O)Nc3c(C)cccc3Cl)s2)cc(N2CCN(CCO)CC2)n1 [Dasatinib, reference compound]
- inhibition at 1 µM [2]: -2%
- inhibition at 0.01 µM [3]: -2%
- inhibition at 1 µM [4]: 6%
- inhibition at 0.01 µM [6]: 5%
- inhibition at 0.01 µM [7]: 1%
- inhibition at 0.01 µM [9]: -3%
- inhibition at 0.01 µM [10]: 3%
- inhibition at 1 µM [10]: 36%
- inhibition at 0.01 µM [11]: -2%
- inhibition at 0.01 µM [16]: -2%
- inhibition at 1 µM [17]: 3%
- inhibition at 0.01 µM [19]: -2%

- inhibition at 0.01 µM [1]: 99%
- inhibition at 1 µM [1]: 99%
- inhibition at 0.01 µM [2]: 9%
- inhibition at 1 µM [2]: 7%
- inhibition at 0.01 µM [3]: -7%
- inhibition at 1 µM [3]: 19%
- inhibition at 0.01 µM ([4]; AurB): -1%
- inhibition at 1 µM ([4]; AurB, 1 μM): 4%
- inhibition at 0.01 µM [5]: -1%
- inhibition at 1 µM [5]: 0%
- inhibition at 0.01 µM [6]: 2%
- inhibition at 1 µM [6]: 2%
- inhibition at 0.01 µM [7]: 1%
- inhibition at 1 µM [7]: 3%
- inhibition at 0.01 µM [8]: 3%
- inhibition at 1 µM [8]: 76%
- inhibition at 0.01 µM [9]: -4%
- inhibition at 1 µM [9]: 5%
- inhibition at 0.01 µM [10]: -2%
- inhibition at 1 µM [10]: 38%
- inhibition at 0.01 µM [11]: 3%
- inhibition at 1 µM [11]: 6%
- inhibition at 0.01 µM [12]: 98%
- inhibition at 1 µM [12]: 99%
- inhibition at 0.01 µM [13]: 98%
- inhibition at 1 µM [13]: 98%
- inhibition at 0.01 µM [14]: 99%
- inhibition at 1 µM [14]: 99%
- inhibition at 0.01 µM [15]: 1%
- inhibition at 1 µM [15]: -1%
- inhibition at 0.01 µM [16]: 3%
- inhibition at 1 µM [16]: 0%
- inhibition at 0.01 µM [17]: 2%
- inhibition at 1 µM [17]: 1%
- inhibition at 0.01 µM [19]: 6%
- inhibition at 1 µM [19]: 4%
- inhibition at 0.01 µM [20]: 99%
- inhibition at 1 µM [20]: 99%
- IC50 [21]: 0.3 nM
Structure (SMILES): COCCOCCOCCNC(=O)OCCN1CCN(c2cc(Nc3ncc(C(=O)Nc4c(C)cccc4Cl)s3)nc(C)n2)CC1 [mPEG3-NHCOO-Dasatinib]
- % Inhibition at 10 nM [18]: 3%
- % Inhibition at 1 μM [18]: 0%

— patent US20120094998A1, “Oligomer-Protein Tyrosine Kinase Inhibitor Conjugates” (Nektar Therapeutics, priority 2009, published 2012)
